From ChEMBL document CHEMBL1201862, “PubChem BioAssay data set” (2004)
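A five-concentration, 48-hour dose response in 96-well plates underlies each endpoint, interpolated linearly between surrounding concentrations. Abbreviation: GI50, concentration required for 50% inhibition of growth.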 The source made the active and inactive calls. Cut-off read from the data, not from the text of the source: active = GI50 up to about 1.1 µM and inactive = higher.

Experiments:
Experiment in all cases: DTP human tumour cell line panel, 48 h
[1] = test system: TK-10
[2] = test system: 786-0
[3] = test system: M14
[4] = test system: OVCAR-4
[5] = test system: LOX IMVI
[6] = test system: HCT-15
[7] = test system: SF-539
[8] = test system: K562
[9] = test system: A549
[10] = test system: OVCAR-5
[11] = test system: SNB-19
[12] = test system: SR
[13] = test system: IGROV-1
[14] = test system: CAKI-1
[15] = test system: NCI/ADR-RES
[16] = test system: UACC-257
[17] = test system: RXF 393
[18] = test system: MOLT-4
[19] = test system: SF-268
[20] = test system: HT-29

Compound	GI50 [1]	GI50 [2]	GI50 [3]	GI50 [4]	GI50 [5]	GI50 [6] [µM]	GI50 [7]	GI50 [8]	GI50 [9]	GI50 [10]	GI50 [11]	GI50 [12]	GI50 [13]	GI50 [14]	GI50 [15]	GI50 [16]	GI50 [17]	GI50 [18]	GI50 [19]	GI50 [20]
CC1=NN(C(=O)c2ccccc2O)C(=O)/C1=C/c1ccc(O)cc1	13 µM (inactive)	0.323 µM (active)	0.351 µM (active)	1.48 µM (inactive)	0.468 µM (active)	0.485	0.188 µM (active)	0.0667 µM (active)	0.291 µM (active)	7.96 µM (inactive)	0.363 µM (active)	0.485 µM (active)	0.14 µM (active)	0.662 µM (active)	0.519 µM (active)	0.658 µM (active)	0.0601 µM (active)	0.711 µM (active)	0.265 µM (active)	26.9 µM (inactive)
Nc1nc(Cl)cc(NCC2(CO)CC(c3ccccc3)C2)n1 (stereo not drawn)	95.1 µM (inactive)	> 100 µM (inactive)	34.6 µM (inactive)	24.4 µM (inactive)	7.16 µM (inactive)	53	> 100 µM (inactive)	9.57 µM (inactive)	26.2 µM (inactive)	> 100 µM (inactive)	88.7 µM (inactive)	7.59 µM (inactive)	> 100 µM (inactive)	> 100 µM (inactive)	13.8 µM (inactive)	20.5 µM (inactive)	58.9 µM (inactive)	19.8 µM (inactive)	94.4 µM (inactive)	30 µM (inactive)
CC(C)C1(O)C(=O)N(c2c(F)c(F)c(F)c(F)c2F)C(=S)N1CCSc1ccccc1 (stereo not drawn)	14.7 µM (inactive)	19.1 µM (inactive)	17.5 µM (inactive)	15.2 µM (inactive)	16.5 µM (inactive)	17.9	20.1 µM (inactive)	13 µM (inactive)	15.3 µM (inactive)	18.7 µM (inactive)	17.8 µM (inactive)	16.2 µM (inactive)	16.4 µM (inactive)	12.2 µM (inactive)	16.3 µM (inactive)	18.2 µM (inactive)	17.3 µM (inactive)	15.1 µM (inactive)	18.4 µM (inactive)	18.4 µM (inactive)
Cc1ccc(/C=C2\Cc3c(C)cc(C)cc3C2=O)c(C(=O)O)c1	83.4 µM (inactive)	61.5 µM (inactive)	> 100 µM (inactive)	34.7 µM (inactive)	22.6 µM (inactive)	36.3	15.9 µM (inactive)	54.7 µM (inactive)	49.9 µM (inactive)	33.2 µM (inactive)	44.5 µM (inactive)	29.4 µM (inactive)	79.8 µM (inactive)	> 100 µM (inactive)	90.6 µM (inactive)	61.8 µM (inactive)	39.9 µM (inactive)	35.5 µM (inactive)	40.5 µM (inactive)	45.3 µM (inactive)
CCOC(=O)/C=C(\C(=O)OCC)n1ccc(=O)n(Cc2cnnn2CCCCOC(C)=O)c1=O	4.54 µM (inactive)	3.46 µM (inactive)	17.5 µM (inactive)	12.3 µM (inactive)	4.09 µM (inactive)	3.73	2.03 µM (inactive)	2.37 µM (inactive)	19.9 µM (inactive)	12.4 µM (inactive)	1.57 µM (inactive)	2.19 µM (inactive)	14 µM (inactive)	2.38 µM (inactive)	17.6 µM (inactive)	11.3 µM (inactive)	0.697 µM (active)	2.49 µM (inactive)	15.6 µM (inactive)	9.08 µM (inactive)
O=c1ccn(C2OC(COC3CCCCO3)C(OC3CCCCO3)C2OC2CCCCO2)c(=O)n1-c1ccccc1 (stereo not drawn)	> 100 µM (inactive)	> 100 µM (inactive)	> 100 µM (inactive)	> 100 µM (inactive)	> 100 µM (inactive)	> 100	> 100 µM (inactive)	91.6 µM (inactive)	> 100 µM (inactive)	> 100 µM (inactive)	> 100 µM (inactive)	51.5 µM (inactive)	> 100 µM (inactive)	> 100 µM (inactive)	> 100 µM (inactive)	> 100 µM (inactive)	> 100 µM (inactive)	> 100 µM (inactive)	> 100 µM (inactive)	> 100 µM (inactive)
OCC1COc2cc(Cl)c(Cl)cc2O1 (stereo not drawn)	> 10 µM (inactive)	–	> 10 µM (inactive)	> 10 µM (inactive)	> 10 µM (inactive)	> 10	> 10 µM (inactive)	> 10 µM (inactive)	> 10 µM (inactive)	> 10 µM (inactive)	> 10 µM (inactive)	> 10 µM (inactive)	> 10 µM (inactive)	> 10 µM (inactive)	> 10 µM (inactive)	–	> 10 µM (inactive)	> 10 µM (inactive)	> 10 µM (inactive)	> 10 µM (inactive)
CC(C)(C)OC(=O)NC(Cc1ccccc1)C(=O)N[C@H]1c2ccsc2/C(=N/O)[C@H]1O (stereo partly drawn)	> 100 µM (inactive)	–	> 100 µM (inactive)	35.2 µM (inactive)	> 100 µM (inactive)	> 100	> 100 µM (inactive)	> 100 µM (inactive)	> 100 µM (inactive)	> 100 µM (inactive)	> 100 µM (inactive)	> 100 µM (inactive)	> 100 µM (inactive)	> 100 µM (inactive)	> 100 µM (inactive)	> 100 µM (inactive)	> 100 µM (inactive)	83 µM (inactive)	–	> 100 µM (inactive)
O=C1O/C(=C\c2ccc(O)cc2)C(c2ccc(O)c(Cl)c2)=C1Br	18.9 µM (inactive)	13 µM (inactive)	13.6 µM (inactive)	11.4 µM (inactive)	42 µM (inactive)	12.9	12 µM (inactive)	2.25 µM (inactive)	–	18.2 µM (inactive)	15.7 µM (inactive)	3.94 µM (inactive)	12 µM (inactive)	15.4 µM (inactive)	11.1 µM (inactive)	13.9 µM (inactive)	18.6 µM (inactive)	11.7 µM (inactive)	13.7 µM (inactive)	16.4 µM (inactive)
CC(C)(C)OC(=O)NC(CSSCC(NC(=O)OC(C)(C)C)C(=O)O)C(=O)O (stereo not drawn)	> 100 µM (inactive)	> 100 µM (inactive)	> 100 µM (inactive)	> 100 µM (inactive)	> 100 µM (inactive)	> 100	> 100 µM (inactive)	> 100 µM (inactive)	> 100 µM (inactive)	> 100 µM (inactive)	> 100 µM (inactive)	> 100 µM (inactive)	> 100 µM (inactive)	> 100 µM (inactive)	> 100 µM (inactive)	> 100 µM (inactive)	> 100 µM (inactive)	> 100 µM (inactive)	> 100 µM (inactive)	> 100 µM (inactive)
Cc1ccc2nc(NC(=O)/C(Cc3nc4ccc(Cl)cc4nc3O)=N\NC(C)(C)C)sc2c1	–	> 100 µM (inactive)	> 100 µM (inactive)	12.5 µM (inactive)	> 100 µM (inactive)	90.6	> 100 µM (inactive)	> 100 µM (inactive)	> 100 µM (inactive)	> 100 µM (inactive)	> 100 µM (inactive)	> 100 µM (inactive)	–	41.8 µM (inactive)	> 100 µM (inactive)	> 100 µM (inactive)	> 100 µM (inactive)	> 100 µM (inactive)	97.9 µM (inactive)	> 100 µM (inactive)
N#CC(=S)Nc1ccc(F)cc1	39.1 µM (inactive)	53.8 µM (inactive)	54.3 µM (inactive)	28.6 µM (inactive)	30.8 µM (inactive)	88.7	38.2 µM (inactive)	23.9 µM (inactive)	33.6 µM (inactive)	83.9 µM (inactive)	> 100 µM (inactive)	40.6 µM (inactive)	32.1 µM (inactive)	63.8 µM (inactive)	34.2 µM (inactive)	30.6 µM (inactive)	42.1 µM (inactive)	31.3 µM (inactive)	96.8 µM (inactive)	67.8 µM (inactive)
CCCCCCCCCCCCOCCOCCOCCOCCOCCOCC(=O)NC(Cc1ccccc1)C(=O)Oc1ccc([N+](=O)[O-])cc1 (stereo not drawn)	38.3 µM (inactive)	34.9 µM (inactive)	31.5 µM (inactive)	40.9 µM (inactive)	29.8 µM (inactive)	37	36.4 µM (inactive)	41.7 µM (inactive)	43 µM (inactive)	> 100 µM (inactive)	47.3 µM (inactive)	23.3 µM (inactive)	44.3 µM (inactive)	> 100 µM (inactive)	37.5 µM (inactive)	29.9 µM (inactive)	31.8 µM (inactive)	23.2 µM (inactive)	50.9 µM (inactive)	33.4 µM (inactive)
COC(=O)C1OC2(CCCC3CC32)O[C@H]1C(=O)OC (stereo partly drawn)	> 100 µM (inactive)	> 100 µM (inactive)	> 100 µM (inactive)	> 100 µM (inactive)	> 100 µM (inactive)	> 100	> 100 µM (inactive)	> 100 µM (inactive)	> 100 µM (inactive)	> 100 µM (inactive)	> 100 µM (inactive)	> 100 µM (inactive)	> 100 µM (inactive)	> 100 µM (inactive)	> 100 µM (inactive)	> 100 µM (inactive)	> 100 µM (inactive)	> 100 µM (inactive)	> 100 µM (inactive)	> 100 µM (inactive)
